# Measurements published in the supplement of paper PMC10307832.
# Key:
# Assay in all cases: relative viability (nuclei count vs DMSO), 5 days (fraction); higher = more cells survive
# A-427 = tested on: A-427
# How it was run: (§1)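 Lung cancer cell lines in 1536-well plates got either a single drug or a fixed anchor-drug dose together with five library-drug doses (not always all listed) in √10 steps, by pin tool, on the day after seeding. Nuclei were counted after 5 days, and relative viability is the treated-to-vehicle ratio of nuclei counts. Values are medians of duplicate plates.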
# COR-L 105 = tested on: COR-L 105
# How it was run: as §1
# EMC-BAC-2 = tested on: EMC-BAC-2
# How it was run: as §1
# HARA = tested on: HARA
# How it was run: as §1
# HCC-366 = tested on: HCC-366
# How it was run: as §1
# HCC-827 = tested on: HCC-827
# How it was run: as §1
# HOP-62 = tested on: HOP-62
# How it was run: as §1
# LCLC-103H = tested on: LCLC-103H
# How it was run: as §1
# NCI-H1395 = tested on: NCI-H1395
# How it was run: as §1
# NCI-H1437 = tested on: NCI-H1437
# How it was run: as §1
# NCI-H1755 = tested on: NCI-H1755
# How it was run: as §1
# NCI-H1792 = tested on: NCI-H1792
# How it was run: as §1
# NCI-H1915 = tested on: NCI-H1915
# How it was run: as §1
# NCI-H2009 = tested on: NCI-H2009
# How it was run: as §1
# NCI-H23 = tested on: NCI-H23
# How it was run: as §1
# NCI-H460 = tested on: NCI-H460
# How it was run: as §1
# NCI-H522 = tested on: NCI-H522
# How it was run: as §1
# NCI-H727 = tested on: NCI-H727
# How it was run: as §1
# SK-LU-1 = tested on: SK-LU-1
# How it was run: as §1
# SW 1573 = tested on: SW 1573
# How it was run: as §1
structure (smiles),measurement,setting,value
COc1nc(C)cnc1NS(=O)(=O)c1cccnc1-c1ccc(-c2nnco2)cc1 [Zibotentan] + Nc1ncn([C@H]2C[C@H](O)[C@@H](CO)O2)c(=O)n1 [Decitabine] (partner 2 µM),relative viability,A-427; first compound 0.08 µM,0.537
same,relative viability,A-427; first compound 0.253 µM,0.542
same,relative viability,A-427; first compound 0.8 µM,0.613
same,relative viability,A-427; first compound 2.53 µM,0.582
same,relative viability,COR-L 105; first compound 0.08 µM,0.634
same,relative viability,COR-L 105; first compound 0.253 µM,0.609
same,relative viability,COR-L 105; first compound 0.8 µM,0.711
same,relative viability,COR-L 105; first compound 2.53 µM,0.615
same,relative viability,EMC-BAC-2; first compound 0.08 µM,1.01
same,relative viability,EMC-BAC-2; first compound 0.8 µM,0.968
same,relative viability,EMC-BAC-2; first compound 2.53 µM,1.01
same,relative viability,HARA; first compound 0.08 µM,0.551
same,relative viability,HARA; first compound 0.8 µM,0.515
same,relative viability,HARA; first compound 2.53 µM,0.497
same,relative viability,HCC-366; first compound 0.08 µM,0.391
same,relative viability,HCC-366; first compound 0.253 µM,0.317
same,relative viability,HCC-366; first compound 0.8 µM,0.331
same,relative viability,HCC-366; first compound 2.53 µM,0.358
same,relative viability,HCC-827; first compound 0.08 µM,0.341
same,relative viability,HCC-827; first compound 0.253 µM,0.333
same,relative viability,HCC-827; first compound 0.8 µM,0.341
same,relative viability,HCC-827; first compound 2.53 µM,0.343
same,relative viability,HOP-62; first compound 0.08 µM,0.169
same,relative viability,HOP-62; first compound 0.253 µM,0.19
same,relative viability,HOP-62; first compound 0.8 µM,0.209
same,relative viability,HOP-62; first compound 2.53 µM,0.207
same,relative viability,LCLC-103H; first compound 0.08 µM,0.718
same,relative viability,LCLC-103H; first compound 0.253 µM,0.727
same,relative viability,LCLC-103H; first compound 0.8 µM,0.738
same,relative viability,LCLC-103H; first compound 2.53 µM,0.709
same,relative viability,NCI-H1395; first compound 0.08 µM,0.736
same,relative viability,NCI-H1395; first compound 0.253 µM,0.68
same,relative viability,NCI-H1395; first compound 0.8 µM,0.708
same,relative viability,NCI-H1395; first compound 2.53 µM,0.674
same,relative viability,NCI-H1437; first compound 0.08 µM,0.534
same,relative viability,NCI-H1437; first compound 0.253 µM,0.545
same,relative viability,NCI-H1437; first compound 0.8 µM,0.564
same,relative viability,NCI-H1437; first compound 2.53 µM,0.556
same,relative viability,NCI-H1755; first compound 0.08 µM,0.737
same,relative viability,NCI-H1755; first compound 0.253 µM,0.616
same,relative viability,NCI-H1755; first compound 0.8 µM,0.8
same,relative viability,NCI-H1755; first compound 2.53 µM,0.732
same,relative viability,NCI-H1792; first compound 0.08 µM,0.491
same,relative viability,NCI-H1792; first compound 0.253 µM,0.549
same,relative viability,NCI-H1792; first compound 0.8 µM,0.547
same,relative viability,NCI-H1792; first compound 2.53 µM,0.575
same,relative viability,NCI-H1915; first compound 0.08 µM,0.248
same,relative viability,NCI-H1915; first compound 0.253 µM,0.262
same,relative viability,NCI-H1915; first compound 0.8 µM,0.27
same,relative viability,NCI-H1915; first compound 2.53 µM,0.257
same,relative viability,NCI-H2009; first compound 0.08 µM,0.404
same,relative viability,NCI-H2009; first compound 0.253 µM,0.398
same,relative viability,NCI-H2009; first compound 0.8 µM,0.417
same,relative viability,NCI-H2009; first compound 2.53 µM,0.377
same,relative viability,NCI-H23; first compound 0.08 µM,0.321
same,relative viability,NCI-H23; first compound 0.253 µM,0.286
same,relative viability,NCI-H23; first compound 0.8 µM,0.34
same,relative viability,NCI-H23; first compound 2.53 µM,0.38
same,relative viability,NCI-H460; first compound 0.08 µM,0.444
same,relative viability,NCI-H460; first compound 0.253 µM,0.287
same,relative viability,NCI-H460; first compound 0.8 µM,0.464
same,relative viability,NCI-H460; first compound 2.53 µM,0.509
same,relative viability,NCI-H522; first compound 0.08 µM,0.677
same,relative viability,NCI-H522; first compound 0.253 µM,0.5
same,relative viability,NCI-H522; first compound 0.8 µM,0.718
same,relative viability,NCI-H522; first compound 2.53 µM,0.756
same,relative viability,NCI-H727; first compound 0.08 µM,0.942
same,relative viability,NCI-H727; first compound 0.253 µM,0.826
same,relative viability,NCI-H727; first compound 0.8 µM,0.908
same,relative viability,NCI-H727; first compound 2.53 µM,0.874
same,relative viability,SK-LU-1; first compound 0.08 µM,0.805
same,relative viability,SK-LU-1; first compound 0.253 µM,0.688
same,relative viability,SK-LU-1; first compound 0.8 µM,0.722
same,relative viability,SK-LU-1; first compound 2.53 µM,0.642
same,relative viability,SW 1573; first compound 0.08 µM,0.611
same,relative viability,SW 1573; first compound 0.8 µM,0.702
same,relative viability,SW 1573; first compound 2.53 µM,0.613
